Experimental data taken from ChEMBL document CHEMBL1146928, “Semisynthesis of C-ring modified triptolide analogues and their cytotoxic activities” (Bioorg Med Chem Lett, 2006).
Converted amounts (≈) assume the structure as drawn.

Assays:
HT-29 = experiment: Cytotoxicity against human HT29 colon tumor cells; assay type: functional, cell-based
A549 = experiment: Cytotoxicity against human A549 lung tumor cells; assay type: functional, cell-based

## CC(C)[C@]12O[C@H]1[C@@H]1O[C@]13[C@]1(O[C@H]1C[C@H]1C4=C(CC[C@@]13C)C(=O)OC4)[C@H]2OC(=S)n1ccnc1
HT-29
  IC50: 0.88 µg/mL (≈ 1.87 µM)
A549
  IC50: 5 µg/mL (≈ 10.6 µM)

## CC(C)[C@]12O[C@H]1[C@]13O[C@H]1C[C@H]1C4=C(CC[C@]1(C)[C@@]31O[C@H]1C2=O)C(=O)OC4
HT-29
  IC50: 0.7 µg/mL (≈ 1.95 µM)
A549
  IC50: 0.85 µg/mL (≈ 2.37 µM)

## CC(C)C1=C[C@]23O[C@H]2C[C@H]2C4=C(CC[C@]2(C)[C@@]32O[C@H]2C1=O)C(=O)OC4
HT-29
  IC50: 0.67 µg/mL (≈ 1.96 µM)
A549
  IC50: 1.2 µg/mL (≈ 3.5 µM)

## CC(C)[C@]12O[C@H]1[C@]13O[C@H]1C[C@H]1C4=C(CC[C@]1(C)[C@@]31O[C@H]1[C@@H]2O)C(=O)OC4
HT-29
  IC50: 0.15 µg/mL (≈ 0.416 µM)
A549
  IC50: 0.27 µg/mL (≈ 0.749 µM)

## CC(C)[C@]12O[C@H]1[C@]13O[C@H]1C[C@H]1C4=C(CC[C@]1(C)[C@@]31O[C@H]1[C@H]2O)C(=O)OC4
HT-29
  IC50: > 10 µg/mL
A549
  IC50: > 10 µg/mL

## CC(C)[C@]12O[C@H]1[C@@H]1O[C@]13[C@]1(O[C@H]1C[C@H]1C4=C(CC[C@@]13C)C(=O)OC4)[C@@H]2OC(=S)n1ccnc1
HT-29
  IC50: 0.004 µg/mL (≈ 0.0085 µM)
A549
  IC50: 0.024 µg/mL (≈ 0.051 µM)

## CC(C)[C@]12O[C@H]1[C@@H]1O[C@@]13[C@@]1(C)CCC4=C(COC4=O)[C@@H]1C[C@@H]1O[C@@]13C2=O [TRIPTONIDE]
HT-29
  IC50: < 0.00046 µg/mL
